We go through 16 compounds from patent publication US20220348595A1, “COMPOUNDS AND METHODS FOR THE TARGETED DEGRADATION OF ESTROGEN RECEPTORS” (Endotarget Inc., priority 2021, published 2022).

Some results are limits rather than exact numbers.

Holding throughout (assay type): cell-based
In one test the target is T1, ER (Homo sapiens, UniProt P03372).
T1 construct: endogenous in cells; host or cells: T47d-kb-Luc (T47D stably transfected with a luciferase reporter gene only)
T1 sequence (P03372 1-595): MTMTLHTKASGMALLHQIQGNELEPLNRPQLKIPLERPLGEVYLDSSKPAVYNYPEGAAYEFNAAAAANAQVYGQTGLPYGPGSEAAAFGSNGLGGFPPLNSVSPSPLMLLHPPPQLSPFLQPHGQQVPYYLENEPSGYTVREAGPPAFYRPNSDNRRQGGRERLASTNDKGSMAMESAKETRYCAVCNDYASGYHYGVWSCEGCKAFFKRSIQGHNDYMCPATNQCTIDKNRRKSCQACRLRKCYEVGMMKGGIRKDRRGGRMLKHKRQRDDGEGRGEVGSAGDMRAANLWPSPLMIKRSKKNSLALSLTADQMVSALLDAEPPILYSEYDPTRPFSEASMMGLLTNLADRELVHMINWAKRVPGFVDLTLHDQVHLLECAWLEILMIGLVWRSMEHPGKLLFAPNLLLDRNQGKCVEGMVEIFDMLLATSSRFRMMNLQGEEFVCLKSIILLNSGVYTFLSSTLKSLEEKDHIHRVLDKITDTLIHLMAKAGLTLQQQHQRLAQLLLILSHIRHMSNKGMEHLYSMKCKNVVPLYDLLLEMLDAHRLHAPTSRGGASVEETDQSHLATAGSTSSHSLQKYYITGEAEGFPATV
In words: ER antagonism (T47D ERE luciferase), T47d-kb-Luc cells. The conditions noted are these: read-out: IC50 (ER antagonistm). A digest of the protocol: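 Stably transfected T47d-kb-Luc human breast cancer cells were used, and antagonism was measured as inhibition of estradiol-driven activity. Data were normalised to the estradiol control. Five concentrations were tested in quadruplicate across at least three experiments.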

In test [1] the test system is MCF-7 breast cancer cells. As to the kind of experiment: MCF-7 proliferation / cell viability assay. The settings on record: Homo sapiens, MCF7; MCF-7 proliferation with 0.1 nM 17-beta estradiol; read-out: IC50 (anti-proliferation). A digest of the protocol:
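MCF-7 cells in 5% FBS DMEM were exposed for 5 days to compound at 6 doses from 10^−10 M to 10^−5 M, with DMSO as vehicle. Viable cells were counted by Coulter counter. Survival ratio = treated/vehicle viable cell number, vehicle set to 100%.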

A further test addresses T2, ERα (Homo sapiens, UniProt P03372).
T2 construct: endogenous in cells; host or cells: MCF-7
T2 sequence (P03372 1-595): T1 sequence (P03372 1-595)
In words: ER degradation in MCF-7 cells (Western blot). The settings on record: for DC50: ER degradation, 24 hours; for Dmax: MCF7, Maximal ER degradation, read-out: Dmax. A digest of the protocol:
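MCF-7 cells treated with a range of compound concentrations for 24 hours, then lysed; 50 μg protein probed for ERα by Western blot with infrared imaging. DC50 is concentration giving 50% ER reduction; Dmax is the highest percentage reduction over the range tested.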
(In general: Immunoblotting shows a protein as a band on a membrane.)

With `CC/C(=C(/c1ccc(B(O)O)cc1)c1ccc(N2CCN(CCCC3CCN(c4ccc5c(c4)CN(C4CCC(=O)NC4=O)C5=O)CC3)CC2)cc1)c1ccccc1` (stereo not shown) [Compound 58], at ER, the IC50 is 10 to 50 nM. Further, the IC50 in test [1] is 10 to 50 nM. Also, at ERα, the 50% degradation concentration (DC50) was under 10 nM and the Dmax is over 90%.

As to `CC/C(=C(\c1ccc(OCCN2CCN(c3ccc4c(c3)C(=O)N(C3CCC(=O)NC3=O)C4=O)CC2)cc1)c1ccc(B(O)O)cc1)c1ccccc1` (stereo not shown) [Compound 42, (E)-(4-(1-(4-(2-(4-(2-(2,6-dioxopiperidin-3-yl)-1,3-dioxoisoindolin-5-yl)piperazin-1 yl)ethoxy)phenyl)-2-phenylbut-1-en-1-yl)phenyl)boronic acid], at ER, the IC50 lay within 10 to 50 nM. In addition, the IC50 in test [1] was in the range of 10 to 50 nM. At ERα, the DC50 is 10 to 50 nM and the maximal degradation (Dmax) was over 50%.

In the case of `CC/C(=C(/c1ccc(B(O)O)cc1)c1ccc(N2CCN(C(=O)N3CCN(c4ccc5c(c4)CN(C4CCC(=O)NC4=O)C5=O)CC3)CC2)cc1)c1ccccc1` (stereo not shown) [Compound 106], the IC50 (at ER; in test [1]) was under 10 nM throughout. Besides, at ERα, the DC50 is under 10 nM. Besides, the Dmax at ERα is over 90%.

Turning to `CC/C(=C(\c1ccc(B(O)O)cc1)c1ccc(N2CCN(CCC3CCN(c4ccc5c(c4)C(=O)N(C4CCC(=O)NC4=O)C5=O)CC3)CC2)cc1)c1ccccc1` (stereo not shown) [Compound 65, (Z)-(4-(1-(4-(4-(2-(1-(2-(2,6-dioxopiperidin-3-yl)-1,3-dioxoisoindolin-5-yl)piperidin-4-yl)ethyl)piperazin-1-yl)phenyl)-2-phenylbut-1-en-1-yl)phenyl)boronic acid], the IC50 at ER is under 10 nM. Moreover, in test [1], the IC50 lay in the range of 10 to 50 nM. Besides, at ERα, the half-maximal degradation concentration (DC50) is under 10 nM and the greatest degradation seen (Dmax) was over 90%.

As for `CC/C(=C(\c1ccc(B(O)O)cc1)c1ccc(N2CCC(CNC3CCN(c4ccc5c(c4)C(=O)N(C4CCC(=O)NC4=O)C5)CC3)CC2)cc1)c1ccccc1` (stereo not shown) [Compound 13, (Z)-(4-(1-(4-(4-(((1-(2-(2,6-dioxopiperidin-3-yl)-3-oxoisoindolin-5-yl)piperidin-4-yl)amino)methyl)piperidin-1-yl)phenyl)-2-phenylbut-1-en-1-yl)phenyl)boronic acid], the IC50 at ER was under 10 nM. For the same compound, the IC50 in test [1] was under 10 nM. Moreover, at ERα, the DC50 is under 10 nM and the maximal degradation (Dmax) was over 90%.

In the case of `CC/C(=C(\c1ccc(B(O)O)cc1)c1ccc(N2CCC(CN3CCN(c4ccc5c(c4)C(=O)N(C4CCC(=O)NC4=O)C5=O)CC3)CC2)cc1)c1ccccc1` (stereo not shown) [Compound 5, (Z)-(4-(1-(4-(4-((4-(2-(2,6-dioxopiperidin-3-yl)-1,3-dioxoisoindolin-5-yl)piperazin-1-yl)methyl)piperidin-1-yl)phenyl)-2-phenylbut-1-en-1-yl)phenyl)boronic acid], the IC50 on ER is 10 to 50 nM; in test [1], over 50 nM. This compound also showed a DC50 on ERα of 10 to 50 nM. Further, the Dmax at ERα is over 90%.

With `CC/C(=C(/c1ccc(O)cc1)c1ccc(N2CCN(C(=O)N3CCN(c4ccc5c(c4)CN([C@@H]4CCC(=O)NC4=O)C5=O)CC3)CC2)cc1)c1ccccc1` [Compound 102, (R,Z)-3-(5-(4-(4-(4-(1-(4-hydroxyphenyl)-2-phenylbut-1-en-1-yl)phenyl)piperazine-1-carbonyl)piperazin-1-yl)-1-oxoisoindolin-2-yl)piperidine-2,6-dione], the IC50 was under 10 nM on ER and 10 to 50 nM in test [1]. The compound further gave a DC50 on ERα of under 10 nM. The greatest degradation seen (Dmax) at ERα was over 90%.

For the compound `CC/C(=C(\c1ccc(OCCN2CCN(CCN3CCN(c4ccc5c(c4)C(=O)N(C4CCC(=O)NC4=O)C5=O)CC3)CC2)cc1)c1ccc(B(O)O)cc1)c1ccccc1` (stereo not shown) [Compound 24], the IC50 at ER lay in the range of 10 to 50 nM. Moreover, in test [1], the IC50 is 10 to 50 nM. Moreover, on ERα, the half-maximal degradation concentration (DC50) is under 10 nM and the maximal degradation (Dmax) is over 90%.

For the compound `CC/C(=C(\c1ccc(O)cc1)c1ccc(N2CCN(C(=O)N3CCN(c4ccc5c(c4)CN([C@@H]4CCC(=O)NC4=O)C5=O)CC3)CC2)cc1)c1ccccc1` [Compound 99, (R,E)-3-(5-(4-(4-(4-(1-(4-hydroxyphenyl)-2-phenylbut-1-en-1-yl)phenyl)piperazine-1-carbonyl)piperazin-1-yl)-1-oxoisoindolin-2-yl)piperidine-2,6-dione], the IC50 at ER was under 10 nM. Further, in test [1], the IC50 fell in the range of 10 to 50 nM. Further, on ERα, the DC50 lay in the range of 10 to 50 nM and the Dmax is over 90%.

Regarding `CC/C(=C(/c1ccc(B(O)O)cc1)c1ccc(N2CCC(CCCN3CCN(c4ccc5c(c4)C(=O)N(C4CCC(=O)NC4=O)C5=O)CC3)CC2)cc1)c1ccccc1` (stereo not shown) [Compound 52, (E)-(4-(1-(4-(4-(3-(4-(2-(2,6-dioxopiperidin-3-yl)-1,3-dioxoisoindolin-5-yl)piperazin-1-yl)propyl)piperidin-1-yl)phenyl)-2-phenylbut-1-en-1-yl)phenyl)boronic acid], at ER, the IC50 is 10 to 50 nM. The IC50 in test [1] was in the range of 10 to 50 nM. In addition, at ERα, the DC50 was under 10 nM and the Dmax is over 90%.

In the case of `CC/C(=C(\c1ccc(B(O)O)cc1)c1ccc(N2CCN(CCCC3CCN(c4ccc5c(c4)C(=O)N(C4CCC(=O)NC4=O)C5=O)CC3)CC2)cc1)c1ccccc1` (stereo not shown) [Compound 55, (Z)-(4-(1-(4-(4-(3-(1-(2-(2,6-dioxopiperidin-3-yl)-1,3-dioxoisoindolin-5-yl)piperidin-4-yl)propyl)piperazin-1-yl)phenyl)-2-phenylbut-1-en-1-yl)phenyl)boronic acid], the IC50 on ER fell in the range of 10 to 50 nM. Besides, in test [1], the IC50 lay in the range of 10 to 50 nM. For the same compound, at ERα, the 50% degradation concentration (DC50) was under 10 nM and the Dmax is over 75%.

For the compound `CC/C(=C(\c1ccc(OCCN2CCN(CCCN3CCN(c4ccc5c(c4)C(=O)N(C4CCC(=O)NC4=O)C5=O)CC3)CC2)cc1)c1ccc(B(O)O)cc1)c1ccccc1` (stereo not shown) [Compound 38, (E)-(4-(1-(4-(2-(4-(3-(4-(2-(2,6-dioxopiperidin-3-yl)-1,3-dioxoisoindolin-5-yl)piperazin-1-yl)propyl)piperazin-1-yl)ethoxy)phenyl)-2-phenylbut-1-en-1-yl)phenyl)boronic acid], the IC50 at ER is 10 to 50 nM. In addition, the IC50 in test [1] was 10 to 50 nM. At ERα, the DC50 was under 10 nM and the Dmax was over 90%.

`CC/C(=C(\c1ccc(B(O)O)cc1)c1ccc(N2CCN(CCCC3CCN(c4ccc5c(c4)CN(C4CCC(=O)NC4=O)C5=O)CC3)CC2)cc1)c1ccccc1` (stereo not shown) [Compound 57, (Z)-(4-(1-(4-(4-(3-(1-(2-(2,6-dioxopiperidin-3-yl)-1-oxoisoindolin-5-yl)piperidin-4-yl)propyl)piperazin-1-yl)phenyl)-2-phenylbut-1-en-1-yl)phenyl)boronic acid]: the IC50 on ER fell in the range of 10 to 50 nM. The IC50 in test [1] was in the range of 10 to 50 nM. For the same compound, on ERα, the DC50 was under 10 nM and the greatest degradation seen (Dmax) was over 90%.

Regarding `CC/C(=C(\c1ccc(B(O)O)cc1)c1ccc(N2CCC(CCN3CCN(c4ccc5c(c4)C(=O)N(C4CCC(=O)NC4=O)C5=O)CC3)CC2)cc1)c1ccccc1` (stereo not shown) [Compound 63, (Z)-(4-(1-(4-(4-(2-(4-(2-(2,6-dioxopiperidin-3-yl)-1,3-dioxoisoindolin-5-yl)piperazin-1-yl)ethyl)piperidin-1-yl)phenyl)-2-phenylbut-1-en-1-yl)phenyl)boronic acid], the IC50 on ER was in the range of 10 to 50 nM. For the same compound, the IC50 in test [1] is 10 to 50 nM. At ERα, the DC50 was 10 to 50 nM and the Dmax was over 90%.

For the compound `CC/C(=C(/c1ccc(OCCN2CCC(CN3CCN(c4ccc5c(c4)CN([C@H]4CCC(=O)NC4=O)C5=O)CC3)CC2)cc1)c1ccc(B(O)O)cc1)c1ccccc1` [Compound 73, (S,Z)-(4-(1-(4-(2-(4-((4-(2-(2,6-dioxopiperidin-3-yl)-1-oxoisoindolin-5-yl)piperazin-1-yl)methyl)piperidin-1-yl)ethoxy)phenyl)-2-phenylbut-1-en-1-yl)phenyl)boronic acid], on ER, the IC50 was under 10 nM. In addition, the IC50 in test [1] was under 10 nM. Moreover, at ERα, the half-maximal degradation concentration (DC50) was under 10 nM and the Dmax was over 90%.

`CC/C(=C(/c1ccc(O)cc1)c1ccc(N2CCN(C(=O)N3CCN(c4ccc5c(c4)CN([C@H]4CCC(=O)NC4=O)C5=O)CC3)CC2)cc1)c1ccccc1` [Compound 101, (S,Z)-3-(5-(4-(4-(4-(1-(4-hydroxyphenyl)-2-phenylbut-1-en-1-yl)phenyl)piperazine-1-carbonyl)piperazin-1-yl)-1-oxoisoindolin-2-yl)piperidine-2,6-dione]: the IC50 at ER was under 10 nM; in test [1], 10 to 50 nM. Further, the half-maximal degradation concentration (DC50) on ERα was under 10 nM. The Dmax on ERα is over 90%.

As a reminder, the DC50 is the concentration giving 50% degradation. Higher therefore signals a less potent degrader. As usually defined, the Dmax is the largest share of the target that was removed.
